Patent publication US9023853B2, “Janus kinase 2 (JAK2) inhibitor for the treatment of lupus” (Cephalon, Inc., priority 2010, dated 2015)
“And” between values parts separate entries of the source, which are not always exact repeats. Identical values can stand only once.

How the values were obtained:
Assay type in all cases: in vivo, mouse
NZM mice [1] = assay: Survival in NZM lupus model; conditions: for Age (d), MEAN: NZM group mean; for Age: NZM individual mouse (survival; EOS = 310 days of age); for survival at EOS: NZM mice
Description: Six week old lupus-prone, female, MRL/lpr (Jackson Labs, #000485) and non-lupus prone control MRL/MpJ (Jackson Labs, #000486) mice were obtained from Jackson Laboratories (Bar Harbor, Me.) at 6-weeks of age. Spontaneous SLE-prone NZBWF1/J (NZM) (catalog no. 100008) female mice and non-lupus prone (within time from of experiment) NZW/LacJ (catalog no. 001058) female mice were obtained from Jackson Laboratories (Bar Harbor, Me.) at 15-weeks of age. All mice were maintained on a […] light/dark cycle, with food and water available ad libitum. All experimental animal procedures were approved by and in accordance to the regulations of the Institutional Animal Care and Use Committee (IACUC) of Cephalon, Inc; approved IACUC protocol #03-040 and #03-03-041.
The NZM strain acts as a mouse model of genetically-driven, progressive, systemic lupus erythematosus (SLE). The evolution of the disease in NZM mice is characterized by an abnormal polyclonal B cell activation with a high production of various autoantibodies, including those directed against DNA and other nuclear antigens, and against cytoskeleton proteins. Elevated circulating immune complexes can lead to fatal glomerulonephritis in older mice.
(§1) Age mated, female, NZM or NZW/LacJ, mice were matured for the study of lupus nephritis for a total of 7 months or 210 days at which time urine was collected for proteinuria detection. Mice with 0.5-1.0 mg/ml of urine protein as determined by an optical density-based total protein precipitation assay and cross-checked for 30-300 mg/dl of protein as determined by a stick assay were considered proteinuria positive and selected for study entry. Groups were normalized to contain a Gaussian distribution of proteinuria positive animals (i.e., ⅓ low proteinuria, ⅓ medium, ⅓ high) then randomized between groups before ear marking and taking baseline measures including urine and serum collections. A total of five mice from the total population were randomly selected for baseline kidney histology evaluation. Treatments and tests for each group are as described in FIG. 12. Briefly, with a minimum of 10 mice per group, COMPOUND A was administered at 100 mg/kg or 55 mg/kg, both twice a day and orally. […] Vehicle included 3% DMSO, 10% Solutol and 87% PBS. […] End-stage lupus nephritis was evaluated by histopathology and scored by a board certified pathologist for the assessment of total renal damage in diseased animals using the scoring method described by Smith et al (Smith, Dong et al. 2007). […] Day-98 or “end of treatment/study” represents 310 days of age for the NZM animals.

[2] = test system: ASCs specific for chromatin; assay: Anti-chromatin antibody secreting B-cell Elispot, NZM spleen; conditions: NZM mice
Description: as §1

NZM mice [3] = assay: Lung histopathology in NZM mice
Description: For histological analyses, the left kidney and lung (NZM model only) from each animal was removed and fixed in 10% buffered neutral 10% formalin (EMD) for 48 hours on an orbital rocker at 25° C., then washed overnight with running dH2O and stored in 70% ethanol at 4° C. until ready to be processed. Kidney stains used for histological analyses included hematoxylin and eosin (H&E), Periodic Acid Schiff (PAS) and Trichrome stains (Wistar Institute, Philadelphia, Pa.). All 3 stained sections were used by the pathologist for scoring purposes. All histological scoring was performed blinded and by an independent board certified veterinary medical pathologist (Julie Engiles, VMD, DACVP; University of Pennsylvania). […]
Age mated, female, NZM or NZW/LacJ, mice were matured for the study of lupus nephritis for a total of 7 months or 210 days at which time urine was collected for proteinuria detection. Mice with 0.5-1.0 mg/ml of urine protein as determined by an optical density-based total protein precipitation assay and cross-checked for 30-300 mg/dl of protein as determined by a stick assay were considered proteinuria positive and selected for study entry. […] End-stage lupus nephritis was evaluated by histopathology and scored by a board certified pathologist for the assessment of total renal damage in diseased animals using the scoring method described by Smith et al (Smith, Dong et al. 2007). […]

MRL/lpr mice = assay: Renal histopathology kidney IC-GN scoring in MRL/lpr mice; conditions: for Glomerular Cellularity / Glomerular Necrosis / Glomerulosclerosis / Interstitial Fibrosis / Interstitial Inflitration / Tubular Atrophy / Vasculitis: MRL/lpr kidney score (grade 0-5), mean
Description: Kidney stains used for histological analyses included hematoxylin and eosin (H&E), Periodic Acid Schiff (PAS) and Trichrome stains (Wistar Institute, Philadelphia, Pa.). All 3 stained sections were used by the pathologist for scoring purposes. All histological scoring was performed blinded and by an independent board certified veterinary medical pathologist (Julie […]; University of Pennsylvania). Multiple stains were used to determine score values. Images in FIGS. 8, 19 and 20 show worst affected area of section selected blindly by the pathologist. Kidney IC-GN Scoring Method (Smith, Dong et al. 2007): 1. Glomerular cellularity-Score 1-5: Null, low, moderate, high, severe […] Glomerular necrosis-Score 1-5: Null, low, moderate, high, severe […] Glomerulosclerosis-Score 1-5: Null, low, moderate, high, severe […] Null, low, moderate, high, severe 5. […] Null, low, moderate, high, severe 6. […] Null, low, moderate, high, severe 7. […] Null, low, moderate, high, severe Specific Pathologist Definitions: • Necrosis was defined by the presence of nuclear debris/pyknosis within the glomerular tuft indicative of “necrosis.” In many samples, this was a very mild, rare finding within only a very few segments of the glomerular tuft. Also considered effacement of the glomerular tuft by PAS positive, Trichrome negative material necrosis. • Glomerular sclerosis was defined by increased fibroplasia or fibrosis within the glomerular tuft or capsule. […] Most of the vascular changes were mild and could be considered “arteriosclerosis” characterized by proliferation of the smooth muscle cells, and hyalinization of the extracellular matrix. This change may reflect hypertension secondary to glomerular pathology. In very few animals was there overt “vasculitis.” Most inflammatory changes were within the walls of the blood vessels, with little to no damage to the endothelium, and no overt hemorrhage/fibrin leakage. Many also have perivascular rims of fibroblasts. […] Mice were tracked on an individual basis.

[4] = MRL/lpr mice, 100 mg/kg, p<0.01

Q: Which results are given for `CN1CCN(c2cccc(Nc3nc4c(-c5ccc(S(C)(=O)=O)cc5)cccn4n3)c2)CC1` [COMPOUND A, [8-(4-methanesulfonyl-phenyl)-[1,2,4]triazolo[1,5-a]pyridin-2-yl]-[3-(4-methyl-piperazin-1-yl)-phenyl]-amine]?
A: Age (d), MEAN (NZM mice [1]; CMPD A 55 mpk bid): 300.2 days; Age (d), MEAN (NZM mice [1]; CMPD A 100 mpk bid): 291.8 days; Age (NZM mice [1]; CMPD A 55 mpk bid, 55 mg/kg): 310 d (9×) and 212 d; Age (NZM mice [1]; CMPD A 100 mpk bid, 100 mg/kg): 310 d (7×) and 268 d (2×) and 212 d; survival at EOS (NZM mice [1]; COMPOUND A 55 mg/kg orally twice a day): 90%; survival at EOS (NZM mice [1]; COMPOUND A 100 mg/kg orally twice a day): 70%; ASCs specific for chromatin, decrease ([2]; COMPOUND A 55 mg/kg): 97.4%; ASCs specific for chromatin, decrease ([2]; COMPOUND A 100 mg/kg): 100%; lung infiltrates (NZM mice [3]; COMPOUND A 55 mg/kg and 100 mg/kg, vs dexamethasone and vehicle): prevented lung infiltrates; Glomerular Cellularity (MRL/lpr mice; COMPOUND A 30 mg/kg): 2.60; Glomerular Necrosis (MRL/lpr mice; COMPOUND A 30 mg/kg): 1.80; Glomerulosclerosis (MRL/lpr mice; COMPOUND A 30 mg/kg): 1.60; Interstitial Fibrosis (MRL/lpr mice; COMPOUND A 30 mg/kg): 1.60; Interstitial Inflitration (MRL/lpr mice; COMPOUND A 30 mg/kg): 2.20; Tubular Atrophy (MRL/lpr mice; COMPOUND A 30 mg/kg): 1.20; Vasculitis (MRL/lpr mice; COMPOUND A 30 mg/kg): 1.80; Glomerular Cellularity (MRL/lpr mice; COMPOUND A 55 mg/kg): 3.20; Glomerular Necrosis (MRL/lpr mice; COMPOUND A 55 mg/kg): 1.80; Glomerulosclerosis (MRL/lpr mice; COMPOUND A 55 mg/kg): 2.00; Interstitial Fibrosis (MRL/lpr mice; COMPOUND A 55 mg/kg): 1.20; Interstitial Inflitration (MRL/lpr mice; COMPOUND A 55 mg/kg): 2.00; Tubular Atrophy (MRL/lpr mice; COMPOUND A 55 mg/kg): 2.20; Vasculitis (MRL/lpr mice; COMPOUND A 55 mg/kg): 2.00; Glomerular Cellularity (MRL/lpr mice; COMPOUND A 100 mg/kg): 2.40; Glomerular Necrosis (MRL/lpr mice; COMPOUND A 100 mg/kg): 1.8; Glomerulosclerosis (MRL/lpr mice; COMPOUND A 100 mg/kg): 2.20; Interstitial Fibrosis (MRL/lpr mice; COMPOUND A 100 mg/kg): 1.40; Interstitial Inflitration (MRL/lpr mice; COMPOUND A 100 mg/kg): 1.80; Tubular Atrophy (MRL/lpr mice; COMPOUND A 100 mg/kg): 1.40; Vasculitis (MRL/lpr mice; COMPOUND A 100 mg/kg): 1.40; interstitial infiltration decrease vs vehicle (MRL/lpr mice; MRL/lpr mice, 55 mg/kg, p<0.05): 33.3%; glomerular cellularity decrease vs vehicle (MRL/lpr mice; [4]): 33.3%; interstitial infiltration decrease vs vehicle (MRL/lpr mice; [4]): 40%; vasculitis decrease vs vehicle (MRL/lpr mice; [4]): 46.1%; enlarged glomeruli and leukocytic infiltrations in renal sections (MRL/lpr mice; MRL/lpr mice, COMPOUND A treated animals at EOS, FIG. 8): absent; cellular infiltrations/glomerulonephritis and glomerular size in H&E stained renal sections (MRL/lpr mice; MRL/lpr mice, compared to dexamethasone and vehicle groups, FIG. 8): decreases in both cellular infiltrations/glomerulonephritis and glomerular size

Q: What does the source list for `C[C@@H]1C[C@H]2[C@@H]3CCC4=CC(=O)C=C[C@]4(C)[C@@]3(F)[C@@H](O)C[C@]2(C)[C@@]1(O)C(=O)CO` [Dex, dexamethasone, reference compound]?
A: Age (d), MEAN (NZM mice [1]; Dex 1.5 mpk 3 × wk): 261.4 days; Age (NZM mice [1]; Dex 1.5 mpk 3 × wk): 291 d (2×) and 240 d (3×) and 268 d and 310 d (2×); Glomerular Cellularity (MRL/lpr mice; Dex 1.5 mg/kg): 3.00; Glomerular Necrosis (MRL/lpr mice; Dex 1.5 mg/kg): 2.00; Glomerulosclerosis (MRL/lpr mice; Dex 1.5 mg/kg): 2.00; Interstitial Fibrosis (MRL/lpr mice; Dex 1.5 mg/kg): 1.20; Interstitial Inflitration (MRL/lpr mice; Dex 1.5 mg/kg): 1.60; Tubular Atrophy (MRL/lpr mice; Dex 1.5 mg/kg): 1.20; Vasculitis (MRL/lpr mice; Dex 1.5 mg/kg): 1.40

Q: Which results are given for `O=P1(N(CCCl)CCCl)NCCCO1` (centres unmarked) [CTX, cyclophosphamide, reference compound]?
A: Age (d), MEAN (NZM mice [1]; CTX 50 mpk 1 × wk): 284.9 days; Age (NZM mice [1]; CTX 50 mpk 1 × wk): 227 d and 310 d (7×) and 212 d and 240 d; survival at EOS (NZM mice [1]; CTX 50 mg/kg once weekly ip): 70%; ASCs specific for chromatin, decrease ([2]; CTX 50 mg/kg once weekly ip): 100%; lung infiltrates (NZM mice [3]; CTX 50 mg/kg once weekly ip): prevented lung infiltrates
